The values below come from patent publication US9732088B2, “C2-carbocyclic iminothiazine dioxides as BACE inhibitors, compositions, and their use” (Merck Sharp & Dohme Corp., priority 2014, dated 2017).

One test deals with BACE-1 (Homo sapiens (Human), UniProt P56817). Description: BACE-1 Cellular Assay (Aβ in HEK293-APPswe/lon cells). The class given is cell-based. To be noted: 4 hours. As for the experimental part:
Assay 3: BACE-1 Cellular Assay
Certain compounds of the invention, identified in the tables herein, were determined to be potent inhibitors of BACE-1 in the following cellular assay. HEK293 cells are obtained from the American Type Culture Collection (ATCC) and stably transfected with the human amyloid precursor protein cDNA containing the FAD Swedish (enhances β-secretase processing) and London (enhances Aβ42 cleavage) mutations. A HEK293 stable clone with Aβ expression (HEK293-APP^swe/lon) is identified and maintained at 37° C., 5% CO2 in the ATCC-recommended growth media supplemented with hygromycin. […] Aβ40 or Aβ42 are measured in 15 μl of media using a mesoscale based ELISA assay. Full length Aβ40 and Aβ42 peptides are captured with the N-terminal specific biotinylated-WO2 monoclonal antibody and detected using either the ruthenylated Aβ40 C-terminal specific monoclonal antibody, G2-10 or the ruthenylated Aβ42 C-terminal specific monoclonal antibody G2-11 respectively. Raw electrochemiluminescnce values are measured using a Mesoscale Sector Imager plate reader and are plotted as a function of compound concentration. IC50 values are interpolated from the data using nonlinear regression analysis (Sigmoidal dose response fit with variable slope) of the data using GraphPad Prism software.

The test system of another test is CSF Aβ40. Kind of test: Aβ Reduction In Vivo (rat CSF Aβ40). To be noted: male CD IGS rats, 10 mg/kg oral gavage, CSF at 3 hours, change vs vehicle. As for the experimental part: Assay 5: Aβ Reduction In Vivo
The in vivo efficacy and/or potency of BACE inhibitors (test compounds) can be evaluated using a variety of animal models, including mouse, rat, dog, and monkey, and these animals can be wild type, transgenic, or gene knockout animals.
Generally, animals are administered (by oral gavage, intravenous injection, or by other suitable route) a test compound in doses ranging from, for example, 0.1 mg/kg (mg of compound per kg of animal body weight) to 100 mg/kg formulated in vehicles, such as cyclodextrin, phosphate buffer, hydroxypropyl methylcellulose or other suitable vehicles. One to twenty-four hours following the administration of compound, animals are sacrificed, and tissues (for example, brain, cerebrospinal fluid (CSF), and/or plasma) are collected for analysis of Aβ levels and/or test compound concentrations (Dovey et al., 2001, Journal of Neurochemistry, 76, 173-181). Tissue samples are processed appropriately and then analyzed for the presence of Aβ by specific sandwich ELISA assays based on electrochemiluminescence (ECL) technology.
For example, in the following assay for which data are reported below, male CD IGS rats (body weight approximately 120 g, Charles River Laboratories, Kingston, N.Y.) were used to assess lowering of CSF levels of Aβ1-40 (Aβ40) in the presence of compounds of the invention. At time 0, animals were administered by oral gavage a test compound at a dose of 10 mg/kg in 20% hydroxypropyl-β-cyclodextrin (dosing volume 5 mL/kg). A separate group of animals received 20% hydroxypropyl-β-cyclodextrin alone to serve as the vehicle control group. Three hours after administration, the rats were euthanized with excess CO2. Immediately following euthanasia, CSF was collected from the cisterna magna and quickly frozen on dry ice. Samples were stored at −80° C. until quantification of Aβ40 levels.
The measurement of endogenous rat Aβ40 in CSF relied on the 585 antibody (Ab585, BioSource, NONO585), which specifically recognizes the N-terminal sequence of rodent Aβ40, and on the monoclonal antibody, G2-10, which specifically recognizes the free C-terminus of Aβ40. Ab585 was labeled with biotin (b-Ab585) by first dialyzing the antibody sample extensively versus PBS (pH 7.8) to remove impurities, followed by dilution to between 1 and 2 mg/mL protein concentration. EZ-Link Sulfo-NHS-LC-Biotin (Pierce) was dissolved in PBS (pH 7.8) at a concentration of 1 mg/mL immediately prior to use. Ab585 was labeled with EZ-Link Sulfo-NHS-LC-biotin using a 10:1 biotin:antibody ratio by incubation at room temperature for 1 hour. The labeling reaction was quenched by addition of 1.0 M glycine to a final concentration of 0.1 M followed by 10 minute incubation at room temperature. Glycine was removed by extensive dialysis versus PBS.
For rat CSF Aβ40 determinations, a calibration curve of various concentrations of synthetic rodent Aβ40 was assayed in parallel with rat CSF samples in duplicate using an avidin-coated 96-well MSD plate (Mesoscale Diagnostics). Either 50 μL of rodent Aβ40 standards diluted in PBS (pH 7.4) supplemented with 1% BSA and 1% Tween-20 (standard diluent buffer) or 40 μL of standard diluent buffer plus 10 μL rat CSF were added to each 96 well avidin-coated plate. To each well was added 50 μL of 0.1 M HEPES (pH 7.5), 2% BSA, 2% Tween-20, 0.3 M NaCl (2×Aβ40 buffer) supplemented with the b-Ab585 capture and ruthenylated-G2-10 detection antibodies diluted to 1 μg/mL and 0.5 μg/mL, respectively. Plates were shaken for 1 min on a microplate shaker, covered to protect from light and incubated overnight (˜16 h) at 4° C. For detection, plates were first washed twice with 100 μL of 1×CSF Aβ40 buffer followed by addition of 160 μL of 1×MSD read buffer-T (Mesoscale Diagnostics) diluted in 1×CSF Aβ40 buffer. Plates were read on a MSD Sector Imager 2400 model (Mesoscale Diagnosotics). […]

Test [1] deals with soluble human BACE-1 catalytic domain (Homo sapiens (Human), UniProt P56817). Kind of test: BACE-1 Ki Assay (BACE-1 HTRF FRET Assay). The class given is biochemical. As to conditions: Assay 1; Ki calculated from IC50 by Cheng-Prusoff. As for the experimental part: Assay 1: BACE-1 Ki Assay (BACE-1 HTRF FRET Assay)
The compounds of the invention were determined to be potent inhibitors of BACE-1 using the following assay.
The following reagents were used in this assay. Na^+-Acetate pH 5.0; 1% Brij-35; Glycerol; Dimethyl Sulfoxide (DMSO); Recombinant human soluble BACE-1 catalytic domain (>95% pure); APP Swedish mutant peptide substrate (QSY7-APP^swe-Eu): QSY7-[…]-Europium-amide.
A homogeneous time-resolved FRET assay can be used to determine IC50 values for inhibitors of the soluble human BACE-1 catalytic domain. This assay monitors the increase of 620 nm fluorescence that resulted from BACE-1 cleavage of an APPswedish APP^swe mutant peptide FRET substrate (QSY7-[…]-Europium-amide). This substrate contains an N-terminal QSY7 moiety that serves as a quencher of the C-terminal Europium fluorophore (620 nm Em). In the absence of enzyme activity, 620 nm fluorescence is low in the assay and increased linearly over 3 hours in the presence of uninhibited BACE-1 enzyme. Inhibition of BACE-1 cleavage of the QSY7-APP^swe-Eu substrate by inhibitors is manifested as a suppression of 620 nm fluorescence.
Varying concentrations of inhibitors at 3× the final desired concentration in a volume of […] are preincubated with purified human BACE-1 catalytic domain (3 nM in 10 μl) for 30 minutes at 30° C. in reaction buffer containing 20 mM Na-Acetate pH 5.0, 10% glycerol, 0.1% Brij-35 and 7.5% DSMO. Reactions are initiated by addition of 10 μl of 600 nM QSY7-APP^swe-Eu substrate (200 nM final) to give a final reaction volume of 30 μl in a 384 well Nunc HTRF plate. The reactions are incubated at 30° C. for 1.5 hours. The 620 nm fluorescence is then read on a Rubystar HTRF plate reader (BMG Labtechnologies) using a […] delay followed by a 400 millisecond acquisition time window. Inhibitor IC50 values are derived from non-linear regression analysis of concentration response curves. Ki values are then calculated from IC50 values using the Cheng-Prusoff equation using a previously determined […] of 8 μM for the QSY7-APP^swe-Eu substrate at BACE-1. The example compounds of the invention were measured in this assay.

Test [2] deals with purified human autoBACE-2 (Homo sapiens (Human), UniProt Q9Y5Z0). Description: BACE-2 Assay (BACE-HTRF assay). The class given is biochemical. As to conditions: Assay 2; Ki calculated from IC50 by Cheng-Prusoff; read-out: BACE2 Ki. The procedure:
The compounds of the invention were determined to be potent inhibitors of BACE-2 using the following assay. Inhibitor IC50s at purified human autoBACE-2 are determined in a time-resolved endpoint proteolysis assay that measures hydrolysis of the QSY7-[…]-Eu-amide FRET peptide substrate (BACE-HTRF assay). BACE-mediated hydrolysis of this peptide results in an increase in relative fluorescence (RFU) at 620 nm after excitation with 320 nm light Inhibitor compounds, prepared at 3× the desired final concentration in 1×BACE assay buffer (20 mM sodium acetate pH 5.0, 10% glycerol, 0.1% Brij-35) supplemented with 7.5% DMSO are pre-incubated with an equal volume of autoBACE-2 enzyme diluted in 1×BACE assay buffer (final enzyme concentration 1 nM) in black 384-well NUNC plates for 30 minutes at 30° C. […] DMSO is present at […] final concentration in the assay. Following laser excitation of sample wells at 320 nm, the fluorescence signal at 620 nm is collected for 400 ms following a 50 μs delay on a RUBYstar HTRF plate reader (BMG Labtechnologies). Raw RFU data is normalized to maximum (1.0 nM BACE/DMSO) and minimum (no enzyme/DMSO) RFU values. IC50 values are determined by nonlinear regression analysis (sigmoidal dose response, variable slope) of percent inhibition data with minimum and maximum values set to 0 and 100 percent respectively. Similar IC50s are obtained when using raw RFU data. The Ki values are calculated from the IC50 using the Cheng-Prusoff equation.

Test [3] addresses purified human Cathepsin-D (Homo sapiens (Human), UniProt P07339). Kind of test: Cathepsin-D Assay (time-resolved FRET).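 Further: Europium-labelled peptide substrate with QSY7 quencher, cleavage read as 620 nm fluorescence after 30 min preincubation then 30 min reaction at 30 °C, pH 5.0, inhibition lowers signal.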 To be noted: Assay 4; Ki calculated from IC50 by Cheng-Prusoff. The class given is biochemical.
Method: Assay 4: Cathepsin-D Assay
This substrate contains an C-terminal QSY7 moiety that serves as a quencher of the N-terminal Europium fluorophore (620 nm Em). In the absence of enzyme activity, 620 nm fluorescence is low in the assay and increased linearly over 1 hour in the presence of uninhibited Cathepsin-D enzyme. Inhibition of Cathespin D cleavage of the Eu-Aspartyl Protease-QSY7 substrate by inhibitors is manifested as a suppression of 620 nm fluorescence.
Varying concentrations of inhibitors in a volume of 100 nl are preincubated with purified human Cathepsin-D (0.1 nM in 10 μl) for 30 minutes at 30° C. in reaction buffer containing 100 mM Na-Acetate pH 5.0, and 0.02% Brij-35. Reactions are initiated by addition of 10 μl of 100 nM Eu-Aspartyl Protease-QSY7 substrate (50 nM final) to give a final reaction volume of 20 μl in a 384 well Nunc HTRF plate. The reactions are incubated at 30° C. for 30 minutes. The 620 nm fluorescence is then read on a Envision Multilabel plate reader (Perkin-Elmer) using a 200 microsecond delay followed by a 400 microsecond acquisition time window. Inhibitor IC50 values are derived from non-linear regression analysis of concentration response curves.

Sequence of BACE-1 (P56817 46-501): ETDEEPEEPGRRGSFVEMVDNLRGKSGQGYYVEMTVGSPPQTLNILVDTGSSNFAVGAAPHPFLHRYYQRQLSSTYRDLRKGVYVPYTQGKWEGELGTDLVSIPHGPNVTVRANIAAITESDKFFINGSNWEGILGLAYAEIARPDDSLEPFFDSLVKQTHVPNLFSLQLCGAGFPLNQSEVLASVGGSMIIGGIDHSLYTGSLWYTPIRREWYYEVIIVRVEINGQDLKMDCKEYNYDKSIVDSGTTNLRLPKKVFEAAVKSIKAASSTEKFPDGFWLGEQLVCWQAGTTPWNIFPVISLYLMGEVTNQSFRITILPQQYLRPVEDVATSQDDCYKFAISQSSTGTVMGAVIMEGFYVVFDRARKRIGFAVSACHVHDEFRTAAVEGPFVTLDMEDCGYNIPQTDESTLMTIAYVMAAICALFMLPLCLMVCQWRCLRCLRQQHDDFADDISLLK
Sequence of soluble human BACE-1 catalytic domain (P56817 75-416): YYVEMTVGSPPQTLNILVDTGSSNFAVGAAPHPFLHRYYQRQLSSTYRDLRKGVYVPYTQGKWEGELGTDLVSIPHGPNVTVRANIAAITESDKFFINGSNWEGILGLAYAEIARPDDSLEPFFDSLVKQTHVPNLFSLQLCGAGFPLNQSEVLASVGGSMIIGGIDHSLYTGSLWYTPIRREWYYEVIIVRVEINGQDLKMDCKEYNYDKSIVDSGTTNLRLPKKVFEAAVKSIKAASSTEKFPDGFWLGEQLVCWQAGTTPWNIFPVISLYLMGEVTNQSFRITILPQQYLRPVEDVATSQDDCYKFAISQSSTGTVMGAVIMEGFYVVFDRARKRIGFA
Sequence of purified human Cathepsin-D (P07339 65-412): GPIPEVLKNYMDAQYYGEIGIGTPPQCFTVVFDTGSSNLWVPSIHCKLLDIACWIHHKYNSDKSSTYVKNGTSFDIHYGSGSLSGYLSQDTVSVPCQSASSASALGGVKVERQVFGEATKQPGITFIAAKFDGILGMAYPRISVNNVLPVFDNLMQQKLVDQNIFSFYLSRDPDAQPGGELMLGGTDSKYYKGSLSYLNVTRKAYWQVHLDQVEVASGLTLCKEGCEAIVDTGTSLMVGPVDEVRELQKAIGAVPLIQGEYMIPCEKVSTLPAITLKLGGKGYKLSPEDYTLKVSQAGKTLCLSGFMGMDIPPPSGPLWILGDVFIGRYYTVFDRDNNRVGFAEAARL
Sequence of purified human autoBACE-2 (Q9Y5Z0 63-466): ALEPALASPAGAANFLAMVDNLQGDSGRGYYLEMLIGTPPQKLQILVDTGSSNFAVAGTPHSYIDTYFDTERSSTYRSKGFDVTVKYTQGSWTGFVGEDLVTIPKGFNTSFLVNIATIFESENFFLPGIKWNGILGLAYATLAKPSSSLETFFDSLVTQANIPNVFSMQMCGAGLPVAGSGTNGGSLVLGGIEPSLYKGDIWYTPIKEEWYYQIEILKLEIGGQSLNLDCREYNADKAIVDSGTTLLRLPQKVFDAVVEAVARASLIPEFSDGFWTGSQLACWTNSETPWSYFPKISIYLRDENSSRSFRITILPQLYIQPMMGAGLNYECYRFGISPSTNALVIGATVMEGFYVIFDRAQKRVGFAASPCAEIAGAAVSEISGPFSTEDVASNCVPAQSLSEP

With `COc1cnc2c(Nc3ccc(F)c([C@]4(C)CS(=O)(=O)[C@@](C)(C5CC5)C(N)=N4)c3)ccnc2c1` [Example 36, (3R,6S)-5-amino-6-cyclopropyl-3-(2-fluoro-5-((7-methoxy-1,5-naphthyridin-4-yl)amino)phenyl)-3,6-dimethyl-3,6-dihydro-2H-1,4-thiazine 1,1-dioxide], the IC50 (usually the concentration at which inhibition is half-maximal) against BACE-1 was 3.5 nM. The “Aβ reduction in vivo in rat (Δ% CSF Aβ40 @ 10 mpk)” value with CSF Aβ40 is −67%.
For `COc1cnc2c(Nc3cc([C@]4(C)CS(=O)(=O)[C@@](C)(C5CC5)C(N)=N4)c(F)cn3)ccnc2n1` [Example 35, (3R,6S)-5-amino-6-cyclopropyl-3-(5-fluoro-2-((3-methoxypyrido[2,3-b]pyrazin-8-yl)amino)pyridin-4-yl)-3,6-dimethyl-3,6-dihydro-2H-1,4-thiazine 1,1-dioxide] the same measures were 10 nM and −75%.
For the molecule `C[C@@]1(c2cc(Nc3ncnc4cc(Br)cnc34)ncc2F)CS(=O)(=O)[C@@](C)(C2CC2)C(N)=N1` [Example 38, (3R,6S)-5-amino-3-(2-((7-bromopyrido[3,2-d]pyrimidin-4-yl)amino)-5-fluoropyridin-4-yl)-6-cyclopropyl-3,6-dimethyl-3,6-dihydro-2H-1,4-thiazine 1,1-dioxide], the Ki (as a rule, a measure of affinity in units of concentration, obtained from inhibition or displacement) in test [1] was 8.2 nM; in test [2] it was 3.8 nM; in test [3] it was 3200 nM. The molecule further came in with an IC50 against BACE-1 of 110 nM.
